Test results as given in ChEMBL document CHEMBL1130065, “Dual inhibition of human leukocyte elastase and lipid peroxidation: in vitro and in vivo activities of azabicyclo[2.2.2]octane and perhydroindole derivatives” (J Med Chem, 1997).

Legend:
[1] = target: T1, Neutrophil elastase (Homo sapiens) (UniProt P08246); experiment: Percentage inhibition of HLE induced hemorrhage in the hamster lung at 6 hours; type: functional, tissue-based; details: concentration not given here
T1 sequence (whole entry): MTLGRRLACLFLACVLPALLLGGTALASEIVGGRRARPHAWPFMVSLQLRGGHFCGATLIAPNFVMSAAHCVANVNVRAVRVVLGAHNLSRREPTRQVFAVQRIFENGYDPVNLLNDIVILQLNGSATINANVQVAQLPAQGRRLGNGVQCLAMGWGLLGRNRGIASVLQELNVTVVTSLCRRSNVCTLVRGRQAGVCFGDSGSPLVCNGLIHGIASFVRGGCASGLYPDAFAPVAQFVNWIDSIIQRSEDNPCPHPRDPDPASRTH

[2] = target: T1, Neutrophil elastase (Homo sapiens); experiment: Percentage inhibition of HLE induced hemorrhage in the hamster lung at 24 hours; type: functional, tissue-based; details: concentration not given here
[3] = target: T1, Neutrophil elastase (Homo sapiens); experiment: Percentage inhibition of HLE induced hemorrhage in the hamster lung at 18 hours; type: functional, tissue-based; details: concentration not given here
Neutrophil elastase = target: T2, Neutrophil elastase (Homo sapiens, UniProt P08246); experiment: Inhibitory concentration against Human Leukocyte Elastase from human sputum
T2 sequence (P08246 whole entry): T1 sequence (whole entry)

Rattus norvegicus [4] = species on record: Rattus norvegicus; experiment: Inhibitory concentration against ferric ascorbate-induced lipid peroxidation from rat liver microsomal preparation; type: functional
[5] = target: T1, Neutrophil elastase (Homo sapiens); experiment: Percentage inhibition of HLE induced hemorrhage in the hamster lung at 3 hours; type: functional; design: concentration or dose not given beside the values; details: concentration not given here
Rattus norvegicus [6] = species on record: Rattus norvegicus
[7] = target: Matrix metalloproteinase-9 (Homo sapiens, UniProt P14780); experiment: The concentration required to achieve 50% inhibition against Matrix metalloprotease-9
Stromelysin-1 = Stromelysin-1 (Homo sapiens, UniProt P08254); experiment: The concentration required to achieve 50% inhibition against Matrix metalloprotease-3
Prolyl endopeptidase = target: T3, Prolyl endopeptidase (Homo sapiens, UniProt P48147); experiment: The concentration required to achieve 50% inhibition against prolyl endopeptidase
T3 sequence (P48147 whole entry): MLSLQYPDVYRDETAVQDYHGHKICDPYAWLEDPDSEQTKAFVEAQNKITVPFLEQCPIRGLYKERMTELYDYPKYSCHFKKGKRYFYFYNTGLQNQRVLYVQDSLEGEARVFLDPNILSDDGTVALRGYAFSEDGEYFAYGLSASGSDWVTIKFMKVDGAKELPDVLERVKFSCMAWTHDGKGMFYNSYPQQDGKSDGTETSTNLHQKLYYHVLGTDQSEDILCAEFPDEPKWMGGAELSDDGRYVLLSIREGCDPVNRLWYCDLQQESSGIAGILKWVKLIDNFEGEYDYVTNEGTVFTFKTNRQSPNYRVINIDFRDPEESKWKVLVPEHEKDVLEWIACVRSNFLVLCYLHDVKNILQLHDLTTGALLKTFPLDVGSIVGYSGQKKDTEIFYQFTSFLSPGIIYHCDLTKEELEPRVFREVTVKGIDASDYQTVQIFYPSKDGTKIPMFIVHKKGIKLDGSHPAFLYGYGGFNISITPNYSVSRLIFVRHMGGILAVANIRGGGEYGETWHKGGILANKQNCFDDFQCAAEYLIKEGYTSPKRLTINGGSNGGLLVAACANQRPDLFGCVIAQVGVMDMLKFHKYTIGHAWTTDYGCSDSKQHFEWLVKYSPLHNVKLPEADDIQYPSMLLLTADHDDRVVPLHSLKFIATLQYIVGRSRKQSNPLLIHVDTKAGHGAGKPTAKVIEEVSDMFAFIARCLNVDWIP

Interstitial collagenase = target: T4, Interstitial collagenase (Homo sapiens, UniProt P03956); experiment: The concentration required to achieve 50% inhibition against Matrix metalloprotease-1
T4 sequence (P03956 whole entry): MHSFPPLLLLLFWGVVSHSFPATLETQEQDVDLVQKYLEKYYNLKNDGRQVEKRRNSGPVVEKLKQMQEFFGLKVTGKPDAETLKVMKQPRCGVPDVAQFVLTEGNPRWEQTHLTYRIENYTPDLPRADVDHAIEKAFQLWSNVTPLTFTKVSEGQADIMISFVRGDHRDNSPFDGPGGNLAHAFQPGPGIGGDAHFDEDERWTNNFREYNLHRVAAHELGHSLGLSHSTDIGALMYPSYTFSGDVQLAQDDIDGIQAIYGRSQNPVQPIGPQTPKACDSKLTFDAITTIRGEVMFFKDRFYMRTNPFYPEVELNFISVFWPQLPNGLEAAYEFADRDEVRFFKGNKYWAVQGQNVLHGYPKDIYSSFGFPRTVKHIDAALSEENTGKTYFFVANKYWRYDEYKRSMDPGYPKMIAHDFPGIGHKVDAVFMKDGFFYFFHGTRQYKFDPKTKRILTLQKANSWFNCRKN

[8] = target: 72 kDa type IV collagenase (Homo sapiens, UniProt P08253); experiment: The concentration required to achieve 50% inhibition against Matrix metalloprotease-2
[9] = target: T1, Neutrophil elastase (Homo sapiens); experiment: Percentage inhibition of HLE induced hemorrhage in the hamster lung at 48 hours; type: functional, tissue-based; details: concentration not given here

Chain of Matrix metalloproteinase-9 (P14780 whole entry): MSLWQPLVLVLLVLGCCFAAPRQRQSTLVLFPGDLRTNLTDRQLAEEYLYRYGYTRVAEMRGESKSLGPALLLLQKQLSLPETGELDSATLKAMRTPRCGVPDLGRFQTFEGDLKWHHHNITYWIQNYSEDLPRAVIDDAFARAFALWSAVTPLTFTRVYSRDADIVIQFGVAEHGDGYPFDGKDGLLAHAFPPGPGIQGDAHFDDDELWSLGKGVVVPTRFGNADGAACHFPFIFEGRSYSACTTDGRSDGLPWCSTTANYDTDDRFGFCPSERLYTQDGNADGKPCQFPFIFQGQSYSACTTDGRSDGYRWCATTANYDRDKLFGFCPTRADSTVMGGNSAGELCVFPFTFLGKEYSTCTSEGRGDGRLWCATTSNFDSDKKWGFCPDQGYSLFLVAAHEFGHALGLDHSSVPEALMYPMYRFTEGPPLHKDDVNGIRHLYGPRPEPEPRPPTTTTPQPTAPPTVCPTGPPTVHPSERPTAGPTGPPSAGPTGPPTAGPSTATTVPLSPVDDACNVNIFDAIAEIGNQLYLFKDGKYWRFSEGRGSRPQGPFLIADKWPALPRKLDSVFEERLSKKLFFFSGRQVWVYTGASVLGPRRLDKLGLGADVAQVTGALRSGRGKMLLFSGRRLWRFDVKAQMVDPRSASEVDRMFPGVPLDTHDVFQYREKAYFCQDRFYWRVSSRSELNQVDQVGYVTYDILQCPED
Chain of Stromelysin-1 (P08254 whole entry): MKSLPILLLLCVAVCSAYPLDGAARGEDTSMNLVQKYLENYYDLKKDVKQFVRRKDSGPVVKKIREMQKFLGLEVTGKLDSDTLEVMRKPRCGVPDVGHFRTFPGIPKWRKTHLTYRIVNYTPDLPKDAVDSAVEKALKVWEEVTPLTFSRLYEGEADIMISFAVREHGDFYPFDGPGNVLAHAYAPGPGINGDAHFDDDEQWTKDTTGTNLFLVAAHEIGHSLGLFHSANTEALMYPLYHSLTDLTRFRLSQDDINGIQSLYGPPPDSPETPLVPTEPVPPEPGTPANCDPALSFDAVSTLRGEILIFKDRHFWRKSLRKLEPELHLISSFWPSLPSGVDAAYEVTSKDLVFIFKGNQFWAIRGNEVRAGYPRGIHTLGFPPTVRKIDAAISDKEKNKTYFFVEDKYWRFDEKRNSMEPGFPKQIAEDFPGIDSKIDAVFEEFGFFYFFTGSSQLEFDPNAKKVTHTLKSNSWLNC
Chain of 72 kDa type IV collagenase (P08253 whole entry): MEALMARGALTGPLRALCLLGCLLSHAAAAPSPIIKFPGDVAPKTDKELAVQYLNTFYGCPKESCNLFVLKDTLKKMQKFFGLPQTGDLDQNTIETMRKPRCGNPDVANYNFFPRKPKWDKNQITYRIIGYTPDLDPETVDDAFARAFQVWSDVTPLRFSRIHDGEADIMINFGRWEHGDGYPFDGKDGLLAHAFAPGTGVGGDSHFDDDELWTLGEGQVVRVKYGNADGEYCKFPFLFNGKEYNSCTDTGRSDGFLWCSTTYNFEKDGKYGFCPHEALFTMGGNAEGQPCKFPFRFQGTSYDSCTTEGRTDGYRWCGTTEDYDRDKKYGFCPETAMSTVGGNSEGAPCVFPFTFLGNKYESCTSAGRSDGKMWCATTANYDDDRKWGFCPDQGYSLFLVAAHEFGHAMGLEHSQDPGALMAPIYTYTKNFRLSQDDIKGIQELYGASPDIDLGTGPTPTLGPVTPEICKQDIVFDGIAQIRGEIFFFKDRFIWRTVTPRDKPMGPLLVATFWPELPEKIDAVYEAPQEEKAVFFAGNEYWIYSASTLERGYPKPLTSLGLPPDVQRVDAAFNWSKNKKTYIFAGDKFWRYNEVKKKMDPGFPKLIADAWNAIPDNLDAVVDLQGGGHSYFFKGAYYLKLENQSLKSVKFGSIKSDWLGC

IC50 (Neutrophil elastase) | IC50 (Rattus norvegicus [4]) | inhibition [5] | IC50 (Rattus norvegicus [6]) | SMILES | other results
38 nM | 5000 nM | 66% |  | CC(C)C(NC(=O)c1ccc(S(=O)(=O)NC(=O)Cc2cc(C(C)(C)C)c(O)c(C(C)(C)C)c2)cc1)C(=O)N1[C@@H](C(=O)NC(C(=O)C(F)(F)F)C(C)C)C[C@H]2CCCC[C@H]21 (stereo not given in full) | inhibition [1]: 65%; inhibition [2]: 3%; inhibition [3]: 26%
36 nM |  | 19% | Not Active | CCOCOc1c(C(C)(C)C)cc(/C=C/C(=O)NS(=O)(=O)c2ccc(C(=O)NC(C(=O)N3[C@@H](C(=O)NC(C(=O)C(F)(F)F)C(C)C)C[C@H]4CCCC[C@H]43)C(C)C)cc2)cc1C(C)(C)C (stereo not given in full) | 
46 nM |  | 0% | Not Active | CC(C)C(NC(=O)c1ccc(S(=O)(=O)NC(=O)c2cc(C(C)(C)C)c(OC(=O)c3cc(C(C)(C)C)c(O)c(C(C)(C)C)c3)c(C(C)(C)C)c2)cc1)C(=O)N1[C@@H](C(=O)NC(C(=O)C(F)(F)F)C(C)C)C[C@H]2CCCC[C@H]21 (stereo not given in full) | 
 |  |  |  | CC(C)C(NC(=O)c1ccc(S(=O)(=O)NC(=O)c2ccc(Cl)c(S(=O)(=O)NC(=O)CSc3cc(C(C)(C)C)c(O)c(C(C)(C)C)c3)c2)cc1)C(=O)N1[C@@H](C(=O)NC(C(=O)C(F)(F)F)C(C)C)C[C@H]2CCCC[C@H]21 (stereo not given in full) | IC50 [7]: 24000 nM; IC50 (Stromelysin-1): 38000 nM; IC50 (Prolyl endopeptidase): 2000 nM; IC50 (Interstitial collagenase): 58000 nM; IC50 [8]: 19000 nM
84 nM | 2500 nM | 3% |  | CC(C)C(NC(=O)[C@@H]1CC2CCCCC2N1C(=O)[C@@H](CCCCNC(=O)CCCSc1cc(C(C)(C)C)c(O)c(C(C)(C)C)c1)NC(=O)c1ccc(C(=O)NS(=O)(=O)c2ccc(Cl)cc2)cc1)C(=O)C(F)(F)F (stereo not given in full) | 
15 nM |  |  | Not Active | CC(C)C(NC(=O)c1ccc(C(=O)NS(=O)(=O)c2ccc(Cl)cc2)cc1)C(=O)N1C2CCC(CC2)[C@@H]1C(=O)NC(C(=O)C(F)(F)F)C(C)C (stereo not given in full) | 
32 nM |  |  |  | CC(C)[C@H](NC(=O)OC(C)(C)C)C(=O)N1C2CCC(CC2)[C@@H]1C(=O)N[C@H](C(=O)C(F)(F)F)C(C)C | 
70 nM | 2500 nM | 40% |  | CC(C)C(NC(=O)[C@@H]1CC2CCCCC2N1C(=O)[C@@H](CCCCNC(=O)Cc1cc(C(C)(C)C)c(O)c(C(C)(C)C)c1)NC(=O)c1ccc(C(=O)NS(=O)(=O)c2ccc(Cl)cc2)cc1)C(=O)C(F)(F)F (stereo not given in full) | inhibition [1]: 41%; inhibition [2]: 14%; inhibition [3]: 45%; inhibition [9]: 0%
